The values that follow come from ChEMBL document CHEMBL1201862, “PubChem BioAssay data set” (2004).

Activity calls are given as the source filed them.

Experiment [1] deals with T1, Calpain-2 catalytic subunit (Sus scrofa, UniProt P43367).
T1 sequence (P43367 whole entry): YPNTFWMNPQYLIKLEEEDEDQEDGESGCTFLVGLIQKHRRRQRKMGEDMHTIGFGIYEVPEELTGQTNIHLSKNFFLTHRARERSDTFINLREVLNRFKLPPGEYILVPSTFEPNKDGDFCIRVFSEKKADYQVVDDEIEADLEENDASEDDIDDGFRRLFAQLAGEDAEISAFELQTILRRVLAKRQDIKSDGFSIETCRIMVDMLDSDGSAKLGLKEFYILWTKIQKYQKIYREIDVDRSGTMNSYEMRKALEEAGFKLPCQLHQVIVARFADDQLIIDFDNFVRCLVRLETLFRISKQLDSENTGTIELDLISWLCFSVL
The experiment can be described thus: pig calpain II inhibitor potency, dose response, biochemical, fluorogenic peptide substrate (AID 1420). The format is functional.

Another experiment has as its target T2, Leucine aminopeptidase (Plasmodium falciparum 3D7, UniProt Q8IL11).
T2 sequence (Q8IL11 whole entry): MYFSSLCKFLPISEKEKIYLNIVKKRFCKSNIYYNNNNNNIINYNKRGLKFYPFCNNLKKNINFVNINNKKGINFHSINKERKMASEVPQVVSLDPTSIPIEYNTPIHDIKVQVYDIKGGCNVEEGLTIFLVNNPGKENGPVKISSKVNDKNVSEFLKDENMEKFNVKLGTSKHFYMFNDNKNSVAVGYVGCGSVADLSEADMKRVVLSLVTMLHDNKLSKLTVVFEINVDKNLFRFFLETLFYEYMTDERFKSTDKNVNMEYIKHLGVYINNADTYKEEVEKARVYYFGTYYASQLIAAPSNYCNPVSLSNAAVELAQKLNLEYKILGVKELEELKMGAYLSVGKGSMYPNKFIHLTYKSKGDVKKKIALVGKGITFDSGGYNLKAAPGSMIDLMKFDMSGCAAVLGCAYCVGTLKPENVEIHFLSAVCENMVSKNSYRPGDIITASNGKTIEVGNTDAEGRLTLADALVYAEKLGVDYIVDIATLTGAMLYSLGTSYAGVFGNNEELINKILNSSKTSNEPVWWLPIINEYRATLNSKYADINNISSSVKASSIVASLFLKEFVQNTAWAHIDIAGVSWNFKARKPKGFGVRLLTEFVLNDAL
The experiment can be described thus: P. falciparum M17LAP inhibitors, primary screen, biochemical, fluorogenic H-Leu-NHMec substrate, 1536-well (AID 1619). The format is functional.

Another experiment has as its target Cytochrome P450 2C19 (Homo sapiens, UniProt P33261). The experiment can be described thus: Cytochrome panel assay with activity outcomes. Panel member name: p450-cyp2c19 Compounds with AC50 equal or less than 10 uM are considered active. The conditions noted are these: read-out: AC50. Format: functional.
Another experiment has as its system Streptococcus. As to the kind of experiment: Group A Streptococcus viability loss, dose response, counter-screen for streptokinase expression inhibitor project, luminescence, BacTiterGlo (AID 1915).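 Also: potency for reduction of bacterial viability or growth.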 Format: functional, organism-based.
For a further experiment, the target named is T3, Streptokinase A (Streptococcus pyogenes serotype M1, UniProt P10520).
T3 sequence (P10520 whole entry): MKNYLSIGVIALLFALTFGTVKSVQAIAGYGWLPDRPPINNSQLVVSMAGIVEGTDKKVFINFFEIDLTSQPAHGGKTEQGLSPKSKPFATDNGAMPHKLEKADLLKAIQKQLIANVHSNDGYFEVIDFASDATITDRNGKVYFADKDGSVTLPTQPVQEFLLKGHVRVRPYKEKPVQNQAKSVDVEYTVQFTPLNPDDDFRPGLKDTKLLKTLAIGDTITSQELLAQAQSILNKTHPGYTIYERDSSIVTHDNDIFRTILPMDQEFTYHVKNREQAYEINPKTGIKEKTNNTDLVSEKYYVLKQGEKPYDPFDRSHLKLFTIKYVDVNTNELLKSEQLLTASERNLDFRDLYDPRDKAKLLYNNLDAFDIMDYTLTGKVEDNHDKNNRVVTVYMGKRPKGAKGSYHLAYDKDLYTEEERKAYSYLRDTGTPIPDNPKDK
The experiment can be described thus: S. pyogenes streptokinase expression inhibitors, potency, dose response, plasminogen activation absorbance, OD405 (AID 1914).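 Also: secreted streptokinase activity via plasminogen activation per viability signal from cell pellet.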 The format is functional, Streptococcus pyogenes M1 GAS.

Experiment [2] in a line: growth suppression of beta-catenin-knockout colon cells, dose response, cell-based, HCT116, human colon tumor (AID 1045).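 Also: HCT116 colon tumor cells with beta catenin knocked out; cells exposed to compound for 60 hours.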 Format: functional.
In experiment [3] the test system is Streptococcus sp. 'group A'. The experiment can be described thus: growth inhibition of control SK(-) GAS strain, dose response, counter-screen for streptokinase expression inhibitor project, luminescence, kanamycin, BacTiterGlo, confirmation (AID 1900). The format is functional, organism-based. Background: Counterscreens check selectivity or assay interference.

Experiment [4] is described as follows: growth suppression of PTEN-null colon cells, dose response, cell-based, HCT116 PTEN knockout (AID 1047).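 Also: HCT116 colon tumor cells with PTEN knocked out; cells exposed to compound for 60 hours before readout; potency for loss of cell viability measured by luminescence.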 Format: functional.
For a further experiment, the target named is Cytochrome P450 2D6 (Homo sapiens, UniProt P10635).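 Also: CYP2D6 member of a cytochrome P450 panel assay.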
The next experiment addresses Large T antigen (Simian virus 40, UniProt P03070). The format is functional, Betapolyomavirus macacae.
A further experiment concerns the target Nonstructural protein 1 (Influenza A virus, UniProt Q194T2). The format is functional, Influenza A virus (A/California/07/2009(H1N1)).
Another experiment has as its target T4, Protein skinhead-1 (Caenorhabditis elegans, UniProt P34707).
T4 sequence (P34707 whole entry): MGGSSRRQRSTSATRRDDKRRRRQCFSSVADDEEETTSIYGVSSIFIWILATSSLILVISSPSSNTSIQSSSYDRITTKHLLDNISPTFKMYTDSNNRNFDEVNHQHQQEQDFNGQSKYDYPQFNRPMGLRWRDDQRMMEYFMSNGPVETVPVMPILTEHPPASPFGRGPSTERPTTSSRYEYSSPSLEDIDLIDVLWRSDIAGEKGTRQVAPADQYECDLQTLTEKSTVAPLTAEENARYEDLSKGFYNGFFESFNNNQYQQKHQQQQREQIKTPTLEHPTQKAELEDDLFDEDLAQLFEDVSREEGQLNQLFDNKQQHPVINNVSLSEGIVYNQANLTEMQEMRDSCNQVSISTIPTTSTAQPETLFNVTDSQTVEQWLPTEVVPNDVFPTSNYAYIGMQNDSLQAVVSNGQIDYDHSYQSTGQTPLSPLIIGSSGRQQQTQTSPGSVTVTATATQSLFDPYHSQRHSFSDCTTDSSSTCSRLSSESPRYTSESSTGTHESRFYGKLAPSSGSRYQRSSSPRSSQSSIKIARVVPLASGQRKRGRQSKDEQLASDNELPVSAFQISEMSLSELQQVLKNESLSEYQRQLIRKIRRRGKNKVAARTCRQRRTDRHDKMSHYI
The format is functional.

In experiment [5] the target is T5, RNA-binding protein pos-1 (Caenorhabditis elegans, UniProt G5EF15).
T5 sequence (G5EF15 whole entry): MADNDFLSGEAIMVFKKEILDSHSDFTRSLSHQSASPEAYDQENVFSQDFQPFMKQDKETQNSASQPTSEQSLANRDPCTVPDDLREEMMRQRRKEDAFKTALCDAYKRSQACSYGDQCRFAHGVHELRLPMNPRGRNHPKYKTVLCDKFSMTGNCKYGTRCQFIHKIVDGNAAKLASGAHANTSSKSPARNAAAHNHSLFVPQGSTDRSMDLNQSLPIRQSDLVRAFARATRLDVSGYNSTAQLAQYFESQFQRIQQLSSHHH
As to the kind of experiment: inhibitors of POS-1/mex-3 RNA binding, dose response, biochemical, fluorescence polarization (AID 1964).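 Also: purified POS-1 fused to maltose binding protein made in E. coli; potency of compounds blocking POS-1 binding to fluorescent RNA.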 For orientation: Fluorescence polarisation rises when a labelled molecule tumbles more slowly, as on binding a larger partner.

For experiment [6], the target named is T6, Zinc finger protein mex-5 (Caenorhabditis elegans, UniProt Q9XUB2).
T6 sequence (Q9XUB2 whole entry): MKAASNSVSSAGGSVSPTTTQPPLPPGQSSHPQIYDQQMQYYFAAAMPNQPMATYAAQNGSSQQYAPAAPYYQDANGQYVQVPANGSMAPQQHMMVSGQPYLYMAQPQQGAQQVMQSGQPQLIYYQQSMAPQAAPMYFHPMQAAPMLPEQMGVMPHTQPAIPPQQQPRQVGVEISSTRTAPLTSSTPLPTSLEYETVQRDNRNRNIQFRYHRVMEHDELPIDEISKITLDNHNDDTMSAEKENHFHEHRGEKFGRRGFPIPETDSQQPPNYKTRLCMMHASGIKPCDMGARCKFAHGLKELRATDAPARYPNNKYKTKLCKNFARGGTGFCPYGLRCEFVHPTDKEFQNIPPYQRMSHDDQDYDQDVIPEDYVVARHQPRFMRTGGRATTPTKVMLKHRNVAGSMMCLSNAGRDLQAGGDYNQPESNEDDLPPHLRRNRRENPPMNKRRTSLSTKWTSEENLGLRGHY
The experiment can be described thus: MEX-5/TCR-2 RNA interaction inhibitors, dose response, biochemical, C. elegans, fluorescence polarization (AID 1960).

Experiment [7] can be described thus: cytotoxicity toward NIH3T3 fibroblasts, dose response, counter-screen, cell-based, ATP luminescence, mouse fibroblasts (AID 2010).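 Also: cells exposed to compound for about 90 hours before reading.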 Format: functional.
The nature of experiment [8]: inhibitors of intracellular T. cruzi replication, confirmation, NIH3T3 host cells, beta-gal luminescence (AID 2044).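 Also: intracellular parasites grown in NIH/3T3 mouse fibroblasts as host cells; luminescent beta-galactosidase reporter signal from transgenic T. cruzi replicating inside host cells; inhibitors lower the luminescence signal.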 Format: functional, cell-based.
Experiment [9] has as its target FAD-linked sulfhydryl oxidase ALR (Homo sapiens, UniProt P55789). As to the kind of experiment: inhibitors of human ALR sulfhydryl oxidase, dose response, biochemical, H2O2 detection, luminescence, cherry-pick (AID 493248).

Sequence of Large T antigen (P03070 whole entry): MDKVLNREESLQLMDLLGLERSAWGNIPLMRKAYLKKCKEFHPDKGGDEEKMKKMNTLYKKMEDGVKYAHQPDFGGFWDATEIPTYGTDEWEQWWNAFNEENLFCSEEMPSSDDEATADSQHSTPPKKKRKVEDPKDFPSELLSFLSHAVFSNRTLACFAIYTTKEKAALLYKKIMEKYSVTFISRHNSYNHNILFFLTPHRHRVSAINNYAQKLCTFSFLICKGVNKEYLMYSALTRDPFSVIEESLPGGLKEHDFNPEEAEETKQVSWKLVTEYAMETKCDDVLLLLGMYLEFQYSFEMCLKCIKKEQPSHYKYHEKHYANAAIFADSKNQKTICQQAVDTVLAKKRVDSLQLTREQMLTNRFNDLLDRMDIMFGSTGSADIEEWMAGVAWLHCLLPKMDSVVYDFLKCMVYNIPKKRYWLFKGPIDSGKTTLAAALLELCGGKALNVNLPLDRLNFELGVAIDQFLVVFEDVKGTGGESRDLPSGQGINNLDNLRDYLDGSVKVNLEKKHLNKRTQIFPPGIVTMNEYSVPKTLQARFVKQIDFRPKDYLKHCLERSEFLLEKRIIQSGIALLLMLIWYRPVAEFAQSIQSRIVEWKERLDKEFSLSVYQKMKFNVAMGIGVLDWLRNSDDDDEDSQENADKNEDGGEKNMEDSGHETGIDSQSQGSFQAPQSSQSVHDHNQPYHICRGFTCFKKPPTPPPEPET
Sequence of Cytochrome P450 2C19 (P33261 whole entry): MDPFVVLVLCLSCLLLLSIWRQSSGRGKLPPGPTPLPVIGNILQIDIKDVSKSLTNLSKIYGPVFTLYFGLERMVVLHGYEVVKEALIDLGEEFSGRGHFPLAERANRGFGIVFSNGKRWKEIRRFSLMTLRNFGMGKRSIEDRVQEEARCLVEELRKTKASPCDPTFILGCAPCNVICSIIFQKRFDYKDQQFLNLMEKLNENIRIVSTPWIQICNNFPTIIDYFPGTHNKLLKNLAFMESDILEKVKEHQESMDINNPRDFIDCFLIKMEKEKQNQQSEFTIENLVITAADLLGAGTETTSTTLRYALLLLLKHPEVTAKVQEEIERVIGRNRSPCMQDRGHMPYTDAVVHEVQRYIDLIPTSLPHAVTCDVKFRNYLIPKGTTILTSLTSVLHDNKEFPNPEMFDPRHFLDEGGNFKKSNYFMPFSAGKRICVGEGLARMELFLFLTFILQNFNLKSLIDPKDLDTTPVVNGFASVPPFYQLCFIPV
Sequence of Nonstructural protein 1 (Q194T2 whole entry): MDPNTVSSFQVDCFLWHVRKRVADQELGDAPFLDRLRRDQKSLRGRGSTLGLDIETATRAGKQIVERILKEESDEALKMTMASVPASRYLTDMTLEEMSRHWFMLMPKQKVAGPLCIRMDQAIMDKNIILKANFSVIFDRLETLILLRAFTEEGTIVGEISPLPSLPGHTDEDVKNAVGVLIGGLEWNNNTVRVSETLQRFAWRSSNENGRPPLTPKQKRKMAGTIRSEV
Sequence of Cytochrome P450 2D6 (P10635 whole entry): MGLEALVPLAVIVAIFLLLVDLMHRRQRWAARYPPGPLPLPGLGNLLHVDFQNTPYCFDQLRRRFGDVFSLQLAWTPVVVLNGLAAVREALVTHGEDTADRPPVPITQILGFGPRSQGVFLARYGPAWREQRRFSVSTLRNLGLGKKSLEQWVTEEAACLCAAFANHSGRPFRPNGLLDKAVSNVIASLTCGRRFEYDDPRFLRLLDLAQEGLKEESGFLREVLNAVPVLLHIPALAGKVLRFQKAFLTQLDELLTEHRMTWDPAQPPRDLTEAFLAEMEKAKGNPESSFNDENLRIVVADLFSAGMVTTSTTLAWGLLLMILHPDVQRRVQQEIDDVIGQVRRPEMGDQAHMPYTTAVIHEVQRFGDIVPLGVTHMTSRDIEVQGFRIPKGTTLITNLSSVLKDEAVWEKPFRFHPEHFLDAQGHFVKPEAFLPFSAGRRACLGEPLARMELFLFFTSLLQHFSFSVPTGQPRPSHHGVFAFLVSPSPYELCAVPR
Sequence of FAD-linked sulfhydryl oxidase ALR (P55789 whole entry): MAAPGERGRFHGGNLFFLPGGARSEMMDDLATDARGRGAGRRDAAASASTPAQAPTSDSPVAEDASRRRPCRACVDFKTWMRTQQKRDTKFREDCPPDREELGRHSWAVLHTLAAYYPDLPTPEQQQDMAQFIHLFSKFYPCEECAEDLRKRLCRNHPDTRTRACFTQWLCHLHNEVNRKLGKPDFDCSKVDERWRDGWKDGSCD

Turning to `O=C(CCCOc1ccc(Cl)cc1Cl)N1CCc2ccccc2C1`, the IC50 (as a rule, the concentration needed to halve the response being measured) in experiment [1] is given as 7.32 µM (not active).

`O=C(CN1C(=O)c2ccccc2S1(=O)=O)NC1CC2CCC1C2` (stereo not drawn): on Leucine aminopeptidase, the IC50 is 75.4 µM (active).

On to `O=C(CSc1nc[nH]n1)Nc1nnc(-c2ccccc2)s1`, for which the IC50 at Leucine aminopeptidase is 43.1 µM (active).

In the case of `CCOC(=O)c1c(NC(=O)C2C3CCC(O3)C2C(=O)O)sc(C)c1-c1ccc(F)cc1` (stereo not drawn), the IC50 on Leucine aminopeptidase is 8.78 µM (active).

For the compound `c1nc(NCc2ccc3c(c2)OCO3)n[nH]1`, the IC50 at Leucine aminopeptidase is 17.9 µM (active).

Consider `CN(C)c1ncc(S(=O)(=O)c2ccc(Cl)cc2)c(-c2ccccc2)n1`, for which the IC50 in experiment [1] was 8.73 µM (not active).

`CC(C)c1ccc(CNc2ccc([N+](=O)[O-])cn2)cc1`: the IC50 in experiment [1] was 6.03 µM (active).

As for `Cc1cc(C)nc(NS(=O)(=O)c2ccc(N/C=C3\CCCC3=O)cc2)n1`, the 50% inhibitory concentration (IC50) at Leucine aminopeptidase is 56.7 µM (active).

For `COCCSc1nnc(NC(=O)c2cc(C(=O)OC)cc([N+](=O)[O-])c2)s1`, the IC50 on Leucine aminopeptidase was 60.2 µM (active).

As for `O=C(O)C1CCCCC1C(=O)Nc1cc(Cl)ccc1Cl` (stereo not drawn), on Cytochrome P450 2C19, the half-maximal activity concentration (AC50) (as a rule, the midpoint of the concentration-response curve, whichever way the signal moves) was 25.1 µM (inconclusive). For the same compound, the half-inhibitory concentration (IC50) at Leucine aminopeptidase is 25 µM (active).

Regarding `CC(C)C[C@H](NC(=O)c1[nH]cnc1C(=O)N[C@@H](CCCCNC(=O)OC(C)(C)C)C(=O)OC(C)(C)C)C(=O)OC(C)(C)C`, the IC50 in experiment [1] is 3.89 µM (not active).

For the compound `CC(C)NC(=O)NC(=O)CSc1nnc(COc2ccccc2F)n1C(C)C1CC2CCC1C2` (stereo not drawn), the EC50 – broadly, the concentration giving half of the maximal effect – was > 150 µM (not active) with Streptococcus; 16.8 µM (active) on Streptokinase A; 20.8 µM (active) in experiment [2]; 5.26 µM (active) in experiment [3]; 19 µM (active) in experiment [4].

Turning to `CCN(CC)c1ccc(NC(=O)CSc2ccsc2[N+](=O)[O-])c(C)c1`, on Leucine aminopeptidase, the IC50 is 1.9 µM (active).

Consider `O=C(NCC1COc2ccccc2O1)C1C2C=CC3(CN(Cc4cccs4)C(=O)C13)O2` (stereo not drawn), for which the IC50 at Leucine aminopeptidase is 7.96 µM (active).

With `N#CCOc1nc(N2CCCC2)nc(N2CCCC2)n1`, the IC50 in experiment [1] was 14.3 µM (not active).

Take `O=C(CN=C(S)N(Cc1ccccc1)Cc1cccs1)NCc1ccc(F)cc1`: in experiment [1], the IC50 was 9.61 µM (not active).

Regarding `COc1ccc(N2CCN(C(CNC(=O)C3CCCCC3)c3cccnc3)CC2)cc1` (stereo not drawn), the half-maximal activity concentration (AC50) was 7.08 µM (inconclusive) at Cytochrome P450 2C19 and 0.355 µM (inconclusive) at Cytochrome P450 2D6. The IC50 at Large T antigen is 27 µM (active).

In the case of `Cc1c(NN=C2C(=O)NC(=S)NC2=O)c(=O)n(-c2ccccc2)n1C`, the IC50 at Nonstructural protein 1 was 2.77 µM (active).

Consider `COC(=O)c1c(C)oc(C)c1S(=O)(=O)Nc1ccc(C(C)C)cc1`, for which the IC50 in experiment [1] was 11.4 µM (not active).

With `Fc1ccc(CNc2nc(-c3ccccc3)nc3ccccc23)cc1`, the results for the IC50 (in experiment [1]; on Protein skinhead-1) were 6.57 µM (not active) and 32.9 µM (active), respectively. Further, the EC50 in [5] was > 300 µM (not active); in experiment [6], > 300 µM (not active); in [7], > 30 µM (not active); in [8] it was 0.107 µM (active).

Turning to `Nc1nnnn1CC(=O)N/N=C/c1cc([N+](=O)[O-])ccc1O`, at Nonstructural protein 1, the 50% inhibitory concentration (IC50) is 3.13 µM (active).

`COc1ccccc1/C=C/C=N/NC(=O)CCC1C(=O)NN=C1C` (stereo not drawn): the IC50 at Leucine aminopeptidase was 57.2 µM (active).

Turning to `CCOc1cc(C(=O)N/N=C\c2cn(CC)nc2C)cc(OCC)c1OCC`, the IC50 in experiment [1] is reported as > 50 µM (not active).

As to `COc1cc(/C=N/Nc2ccccn2)ccc1O`, the IC50 on Large T antigen was 5.41 µM (active).

In the case of `COc1cc(/C=N/NS(=O)(=O)c2ccc(Br)cc2)ccc1O`, the AC50 in experiment [9] was 1.7 µM (active). At Large T antigen, the IC50 was 19.4 µM (active).
